From the OligoGym collection
Oligonucleotides are given in HELM: sugar(base)linkage, 5' to 3'; d 2'-deoxyribose, r ribose, m 2'-O-methylribose, p phosphate. ss, as = sense and antisense strand

biological target: SOST; assay: reporter assay of Huesken 2005; conditions: siRNA
Further: test concentration or dose not given here.

Substance	normalised inhibition (eCFP-eYFP dual reporter) [%]
RNA1{r(A)p.r(G)p.r(C)p.r(U)p.r(G)p.r(C)p.r(U)p.r(G)p.r(U)p.r(G)p.r(U)p.r(C)p.r(C)p.r(C)p.r(G)p.r(G)p.r(U)p.r(G)p.r(G)p.d(T)p.d(T)}|RNA2{r(C)p.r(C)p.r(A)p.r(C)p.r(C)p.r(G)p.r(G)p.r(G)p.r(A)p.r(C)p.r(A)p.r(C)p.r(A)p.r(G)p.r(C)p.r(A)p.r(G)p.r(C)p.r(U)p.d(G)p.d(C)}$$$RNA1{StrandType:ss}|RNA2{StrandType:as}$	66
RNA1{r(A)p.r(G)p.r(G)p.r(U)p.r(G)p.r(C)p.r(G)p.r(C)p.r(C)p.r(U)p.r(G)p.r(G)p.r(U)p.r(G)p.r(G)p.r(C)p.r(C)p.r(U)p.r(C)p.d(T)p.d(T)}|RNA2{r(G)p.r(A)p.r(G)p.r(G)p.r(C)p.r(C)p.r(A)p.r(C)p.r(C)p.r(A)p.r(G)p.r(G)p.r(C)p.r(G)p.r(C)p.r(A)p.r(C)p.r(C)p.r(U)p.d(T)p.d(G)}$$$RNA1{StrandType:ss}|RNA2{StrandType:as}$	71.2
RNA1{r(A)p.r(G)p.r(U)p.r(G)p.r(G)p.r(U)p.r(G)p.r(G)p.r(C)p.r(G)p.r(A)p.r(C)p.r(C)p.r(U)p.r(A)p.r(G)p.r(U)p.r(G)p.r(G)p.d(T)p.d(T)}|RNA2{r(C)p.r(C)p.r(A)p.r(C)p.r(U)p.r(A)p.r(G)p.r(G)p.r(U)p.r(C)p.r(G)p.r(C)p.r(C)p.r(A)p.r(C)p.r(C)p.r(A)p.r(C)p.r(U)p.d(T)p.d(G)}$$$RNA1{StrandType:ss}|RNA2{StrandType:as}$	78.9
RNA1{r(C)p.r(A)p.r(A)p.r(G)p.r(U)p.r(G)p.r(C)p.r(A)p.r(A)p.r(G)p.r(C)p.r(G)p.r(C)p.r(C)p.r(U)p.r(C)p.r(A)p.r(C)p.r(C)p.d(T)p.d(T)}|RNA2{r(G)p.r(G)p.r(U)p.r(G)p.r(A)p.r(G)p.r(G)p.r(C)p.r(G)p.r(C)p.r(U)p.r(U)p.r(G)p.r(C)p.r(A)p.r(C)p.r(U)p.r(U)p.r(G)p.d(C)p.d(A)}$$$RNA1{StrandType:ss}|RNA2{StrandType:as}$	68.8
RNA1{r(C)p.r(A)p.r(A)p.r(G)p.r(U)p.r(G)p.r(G)p.r(U)p.r(G)p.r(G)p.r(C)p.r(G)p.r(A)p.r(C)p.r(C)p.r(U)p.r(A)p.r(G)p.r(U)p.d(T)p.d(T)}|RNA2{r(A)p.r(C)p.r(U)p.r(A)p.r(G)p.r(G)p.r(U)p.r(C)p.r(G)p.r(C)p.r(C)p.r(A)p.r(C)p.r(C)p.r(A)p.r(C)p.r(U)p.r(U)p.r(G)p.d(C)p.d(C)}$$$RNA1{StrandType:ss}|RNA2{StrandType:as}$	64.5
RNA1{r(C)p.r(A)p.r(C)p.r(C)p.r(C)p.r(C)p.r(U)p.r(U)p.r(U)p.r(G)p.r(A)p.r(G)p.r(A)p.r(C)p.r(C)p.r(A)p.r(A)p.r(A)p.r(G)p.d(T)p.d(T)}|RNA2{r(C)p.r(U)p.r(U)p.r(U)p.r(G)p.r(G)p.r(U)p.r(C)p.r(U)p.r(C)p.r(A)p.r(A)p.r(A)p.r(G)p.r(G)p.r(G)p.r(G)p.r(U)p.r(G)p.d(G)p.d(T)}$$$RNA1{StrandType:ss}|RNA2{StrandType:as}$	72.2
RNA1{r(C)p.r(A)p.r(G)p.r(C)p.r(G)p.r(C)p.r(C)p.r(A)p.r(A)p.r(G)p.r(C)p.r(C)p.r(G)p.r(G)p.r(U)p.r(C)p.r(A)p.r(C)p.r(C)p.d(T)p.d(T)}|RNA2{r(G)p.r(G)p.r(U)p.r(G)p.r(A)p.r(C)p.r(C)p.r(G)p.r(G)p.r(C)p.r(U)p.r(U)p.r(G)p.r(G)p.r(C)p.r(G)p.r(C)p.r(U)p.r(G)p.d(C)p.d(G)}$$$RNA1{StrandType:ss}|RNA2{StrandType:as}$	50.5
RNA1{r(C)p.r(A)p.r(G)p.r(G)p.r(C)p.r(G)p.r(U)p.r(U)p.r(C)p.r(A)p.r(A)p.r(G)p.r(A)p.r(A)p.r(U)p.r(G)p.r(A)p.r(U)p.r(G)p.d(T)p.d(T)}|RNA2{r(C)p.r(A)p.r(U)p.r(C)p.r(A)p.r(U)p.r(U)p.r(C)p.r(U)p.r(U)p.r(G)p.r(A)p.r(A)p.r(C)p.r(G)p.r(C)p.r(C)p.r(U)p.r(G)p.d(C)p.d(C)}$$$RNA1{StrandType:ss}|RNA2{StrandType:as}$	82.4
RNA1{r(C)p.r(A)p.r(U)p.r(C)p.r(C)p.r(C)p.r(C)p.r(G)p.r(A)p.r(G)p.r(C)p.r(U)p.r(C)p.r(G)p.r(G)p.r(A)p.r(G)p.r(A)p.r(G)p.d(T)p.d(T)}|RNA2{r(C)p.r(U)p.r(C)p.r(U)p.r(C)p.r(C)p.r(G)p.r(A)p.r(G)p.r(C)p.r(U)p.r(C)p.r(G)p.r(G)p.r(G)p.r(G)p.r(A)p.r(U)p.r(G)p.d(A)p.d(T)}$$$RNA1{StrandType:ss}|RNA2{StrandType:as}$	50.9
RNA1{r(C)p.r(C)p.r(A)p.r(C)p.r(A)p.r(A)p.r(C)p.r(C)p.r(A)p.r(G)p.r(U)p.r(C)p.r(G)p.r(G)p.r(A)p.r(G)p.r(C)p.r(U)p.r(C)p.d(T)p.d(T)}|RNA2{r(G)p.r(A)p.r(G)p.r(C)p.r(U)p.r(C)p.r(C)p.r(G)p.r(A)p.r(C)p.r(U)p.r(G)p.r(G)p.r(U)p.r(U)p.r(G)p.r(U)p.r(G)p.r(G)p.d(A)p.d(A)}$$$RNA1{StrandType:ss}|RNA2{StrandType:as}$	80.8
RNA1{r(C)p.r(C)p.r(A)p.r(C)p.r(C)p.r(G)p.r(G)p.r(A)p.r(G)p.r(C)p.r(U)p.r(G)p.r(G)p.r(A)p.r(G)p.r(A)p.r(A)p.r(C)p.r(A)p.d(T)p.d(T)}|RNA2{r(U)p.r(G)p.r(U)p.r(U)p.r(C)p.r(U)p.r(C)p.r(C)p.r(A)p.r(G)p.r(C)p.r(U)p.r(C)p.r(C)p.r(G)p.r(G)p.r(U)p.r(G)p.r(G)p.d(A)p.d(G)}$$$RNA1{StrandType:ss}|RNA2{StrandType:as}$	86.7
RNA1{r(C)p.r(C)p.r(C)p.r(G)p.r(C)p.r(U)p.r(A)p.r(C)p.r(G)p.r(U)p.r(G)p.r(A)p.r(C)p.r(C)p.r(G)p.r(A)p.r(U)p.r(G)p.r(G)p.d(T)p.d(T)}|RNA2{r(C)p.r(C)p.r(A)p.r(U)p.r(C)p.r(G)p.r(G)p.r(U)p.r(C)p.r(A)p.r(C)p.r(G)p.r(U)p.r(A)p.r(G)p.r(C)p.r(G)p.r(G)p.r(G)p.d(T)p.d(G)}$$$RNA1{StrandType:ss}|RNA2{StrandType:as}$	77.6
RNA1{r(C)p.r(C)p.r(G)p.r(A)p.r(U)p.r(G)p.r(G)p.r(G)p.r(C)p.r(C)p.r(G)p.r(U)p.r(G)p.r(C)p.r(C)p.r(G)p.r(C)p.r(A)p.r(G)p.d(T)p.d(T)}|RNA2{r(C)p.r(U)p.r(G)p.r(C)p.r(G)p.r(G)p.r(C)p.r(A)p.r(C)p.r(G)p.r(G)p.r(C)p.r(C)p.r(C)p.r(A)p.r(U)p.r(C)p.r(G)p.r(G)p.d(T)p.d(C)}$$$RNA1{StrandType:ss}|RNA2{StrandType:as}$	54.3
RNA1{r(C)p.r(C)p.r(G)p.r(C)p.r(A)p.r(G)p.r(C)p.r(G)p.r(C)p.r(C)p.r(A)p.r(A)p.r(G)p.r(C)p.r(C)p.r(G)p.r(G)p.r(U)p.r(C)p.d(T)p.d(T)}|RNA2{r(G)p.r(A)p.r(C)p.r(C)p.r(G)p.r(G)p.r(C)p.r(U)p.r(U)p.r(G)p.r(G)p.r(C)p.r(G)p.r(C)p.r(U)p.r(G)p.r(C)p.r(G)p.r(G)p.d(C)p.d(A)}$$$RNA1{StrandType:ss}|RNA2{StrandType:as}$	51.3
